What all share (format): biochemical
Experiment [1] deals with T1, SRC (Homo sapiens, UniProt P12931).
T1 construct: purchased Carna Bioscience, Kobe, Japan
Nature of the experiment: Src enzymatic assay (Caliper LifeSciences technology). As to the method: (§1) The assays described here are performed on the Caliper Life Sciences LC3000 system This technology provides data on enzyme activity via measurement of the relative amounts of phosphorylated or unphosphorylated fluorescently labelled substrate peptide at the end of an enzymatic reaction. These different states of peptide are resolved by applying a potential difference across the sample. The presence of the charged phosphate group on the product (as opposed to the substrate) causes a different peptide mobility between the two peptides. This is visualized by excitation of the fluorescent label on the substrate and product peptides and represented as peaks within the analysis software.
(§2) In order to measure inhibitor activity of kinase inhibitors on this technology, a TTP Mosquito liquid handling instrument is used to place 0.25 ul of the appropriate concentration of inhibitor in 100% DMSO (for a dose response curve calculation) into each well of a 384-well plate. To this reaction components are added to a final volume of 25 ul. The table below indicates the sequences and concentrations for the assays described in this report. Standard components are 1 mM DTT (Sigma, D0632), 1 mM MgCl2 (Sigma, M1028), 100 mM HEPES pH 7.5 (Calbiochem, 391338), 0.015% Brij-35 (Sigma, B4184).
(§3) The reaction is incubated for 90 min at 25 C, and then stopped by the addition of 70 ul of Stop buffer (100 mM HEPES pH 7.5, 0.015% Brij-35, 10 mM EDTA (Sigma, E7889)).
(§4) The plate is read on a Caliper LC 3000 in an Off-Chip mobility shift assay format, on a 12-sipper chip. Unphosphorylated substrate and phosphorylated product peptide resolve as separate peaks allowing direct measurement of percentage of conversion of substrate to product. The percent conversion can be plotted against concentration of inhibitor to produce a sigmoidal dose response curve, from which an IC50 can be calculated using GeneData Condoseo or a similar product.

In experiment [2] the target is T2, Syk (Homo sapiens, UniProt P43405).
T2 construct: purchased BPS Bioscience, CA, USA
Nature of the experiment: Syk enzyme assay (SYK flash plate assay / Caliper mobility shift). The method, boiled down:
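Flashplate format: 2.5 nM SYK, 400 nM biotinylated peptide, 10 μM ATP with 33P-ATP, pH 7.5, 1 h at 30 °C; radioactivity read, staurosporine background. Caliper format: 90 min at 25 °C, mobility-shift read of substrate-to-product conversion; IC50 from dose-response curve.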

The target in experiment [3] is T3, KDR (Homo sapiens, UniProt P35968).
T3 construct: purchased BPS Bioscience, CA, USA
T3 sequence (P35968 20-1356): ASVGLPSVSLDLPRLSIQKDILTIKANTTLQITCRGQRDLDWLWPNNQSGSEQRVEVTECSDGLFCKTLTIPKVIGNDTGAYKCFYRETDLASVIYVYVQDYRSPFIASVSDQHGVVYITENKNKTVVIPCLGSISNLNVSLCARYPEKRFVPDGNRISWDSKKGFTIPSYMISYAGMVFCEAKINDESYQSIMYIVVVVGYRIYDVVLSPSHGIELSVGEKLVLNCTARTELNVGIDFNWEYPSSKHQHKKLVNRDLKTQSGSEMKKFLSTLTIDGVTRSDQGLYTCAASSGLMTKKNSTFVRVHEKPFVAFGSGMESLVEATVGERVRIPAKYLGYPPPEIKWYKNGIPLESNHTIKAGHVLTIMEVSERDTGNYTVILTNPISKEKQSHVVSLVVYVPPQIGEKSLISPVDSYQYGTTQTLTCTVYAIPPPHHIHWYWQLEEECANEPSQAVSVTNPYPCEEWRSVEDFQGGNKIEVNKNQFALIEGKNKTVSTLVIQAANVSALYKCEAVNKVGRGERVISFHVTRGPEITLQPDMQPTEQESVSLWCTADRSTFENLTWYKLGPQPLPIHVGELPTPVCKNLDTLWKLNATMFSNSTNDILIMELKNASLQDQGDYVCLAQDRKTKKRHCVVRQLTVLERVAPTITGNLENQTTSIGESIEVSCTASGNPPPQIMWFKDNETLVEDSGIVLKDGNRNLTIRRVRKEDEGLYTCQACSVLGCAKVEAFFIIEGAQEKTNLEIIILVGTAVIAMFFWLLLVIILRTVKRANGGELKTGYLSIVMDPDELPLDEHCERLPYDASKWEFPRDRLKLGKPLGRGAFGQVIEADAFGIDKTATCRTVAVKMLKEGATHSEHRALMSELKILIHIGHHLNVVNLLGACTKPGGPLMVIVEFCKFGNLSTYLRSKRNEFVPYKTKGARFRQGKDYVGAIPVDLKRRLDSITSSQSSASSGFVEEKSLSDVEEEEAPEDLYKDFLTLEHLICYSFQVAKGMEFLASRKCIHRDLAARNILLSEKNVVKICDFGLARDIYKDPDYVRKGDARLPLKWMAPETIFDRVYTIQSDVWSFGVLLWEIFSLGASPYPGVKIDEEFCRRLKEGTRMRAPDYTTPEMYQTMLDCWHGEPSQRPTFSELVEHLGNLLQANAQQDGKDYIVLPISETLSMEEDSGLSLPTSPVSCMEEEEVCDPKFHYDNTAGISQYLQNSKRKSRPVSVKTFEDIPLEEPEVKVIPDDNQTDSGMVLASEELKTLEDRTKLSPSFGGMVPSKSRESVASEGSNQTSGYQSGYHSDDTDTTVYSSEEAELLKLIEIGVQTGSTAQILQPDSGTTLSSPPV
Nature of the experiment: KDR enzymatic assay (Caliper LifeSciences technology). As to the method:
as §1, §2, §3, §4

Bounds are passed on as bounds.

A word on the IC50: it is the concentration at which inhibition is half-maximal.

T1 sequence (P12931 whole entry): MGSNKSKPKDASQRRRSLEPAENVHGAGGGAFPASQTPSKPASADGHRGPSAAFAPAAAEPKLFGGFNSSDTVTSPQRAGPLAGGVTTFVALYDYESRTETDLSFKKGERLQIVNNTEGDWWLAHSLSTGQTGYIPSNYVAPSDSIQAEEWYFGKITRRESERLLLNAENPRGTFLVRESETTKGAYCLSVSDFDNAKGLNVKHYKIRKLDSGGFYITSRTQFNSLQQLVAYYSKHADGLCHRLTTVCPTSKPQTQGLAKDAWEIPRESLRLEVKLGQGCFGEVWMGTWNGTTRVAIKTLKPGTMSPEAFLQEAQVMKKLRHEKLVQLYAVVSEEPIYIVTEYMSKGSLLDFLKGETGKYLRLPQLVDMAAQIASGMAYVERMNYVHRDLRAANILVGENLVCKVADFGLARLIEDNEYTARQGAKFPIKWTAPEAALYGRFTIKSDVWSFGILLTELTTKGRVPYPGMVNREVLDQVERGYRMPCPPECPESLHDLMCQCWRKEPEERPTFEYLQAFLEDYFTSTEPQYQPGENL

As to `Cc1noc(C)c1-c1cc2nccc(-c3c(C)noc3C)c2o1` [Compound B41, 2,7-Bis-(3,5-dimethyl-isoxazol-4-yl)-furo[3,2-b]pyridine], the concentration for half-maximal inhibition (IC50) in experiment [1], in experiment [2] and in experiment [3] was 3 to 50 µM in each case.

For the molecule `COc1cc(-c2cc3nccc(-c4cccc(CNC(C)=O)c4)c3o2)cc(OC)c1OC` [Compound A52, N-[[3-[2-(3,4,5-trimethoxyphenyl)furo[3,2-b]pyridin-7-yl]phenyl]methyl]-acetamide], the half-inhibitory concentration (IC50) in experiment [1] was 3 to 50 µM; in experiment [2], < 0.3 µM; in experiment [3], 3 to 50 µM.

`Cc1c(Nc2ccnc3cc(-c4ccc5c(c4)OCCO5)oc23)ccc2[nH]ccc12` [Compound B60, [2-(2,3-Dihydro-benzo[1,4]dioxin-6-yl)-furo[3,2-b]pyridin-7-yl]-(4-methyl-1H-indol-5-yl)-amine]: the IC50 in experiment [1] was < 0.3 µM; in experiment [2], 0.3 to 3 µM; in experiment [3], 0.3 to 3 µM.

Turning to `COc1cc(-c2cc3nccc(-c4cnc5c(c4)CCCO5)c3o2)cc(OC)c1OC` [Compound C113], the IC50 in experiment [1] is 0.3 to 3 µM; in experiment [2] it was < 0.3 µM; in experiment [3], 0.3 to 3 µM.

`COc1ccc(-c2cc3nccc(-c4ccccc4)c3o2)cc1NC(=O)[C@@H]1C[C@@H](O)CN1` [Compound C40]: the results for the IC50 in experiment [1], in experiment [2] and in experiment [3] were 3 to 50 µM, 0.3 to 3 µM and 0.3 to 3 µM, respectively.

On to `Cc1ccc(-c2cc3nccc(Nc4ccc5[nH]ccc5c4C)c3o2)cc1` [Compound B46, (4-Methyl-1H-indol-5-yl)-(2-p-tolyl-furo[3,2-b]pyridin-7-yl)-amine], for which the IC50 in experiment [1] is < 0.3 µM; in experiment [2], 3 to 50 µM; in experiment [3], 0.3 to 3 µM.

Regarding `COc1ccc(-c2cc3nccc(Nc4ccc5[nH]ccc5c4C)c3o2)c(OC)c1OC` [Compound B56], the IC50 in experiment [1] is < 0.3 µM; in experiment [2] it was 0.3 to 3 µM; in experiment [3] it was < 0.3 µM.

In the case of `COc1cc(-c2cc3nccc(Nc4ccc(Sc5nccn5C)c(Cl)c4)c3o2)cc(OC)c1OC` [Compound B16, [3-Chloro-4-(1-methyl-1H-imidazol-2-ylsulfanyl)-phenyl]-[2-(3,4,5-trimethoxy-phenyl)-furo[3,2-b]pyridin-7-yl]-amine], the IC50 in experiment [1], in experiment [2] and in experiment [3] was 3 to 50 µM throughout.

With `COc1ccc(-c2cc3nccc(Nc4ccc5[nH]ccc5c4C)c3o2)cc1C` [Compound B50, [2-(4-Methoxy-3-methyl-phenyl)-furo[3,2-b]pyridin-7-yl]-(4-methyl-1H-indol-5-yl)-amine], the IC50 in experiment [1], in experiment [2] and in experiment [3] was 0.3 to 3 µM in each case.

As to `COc1cc(-c2cc3nccc(-c4cc(OC)c(OC)c(OC)c4)c3o2)cc(OC)c1OC` [Compound B24, 2,7-Bis-(3,4,5-trimethoxy-phenyl)-furo[3,2-b]pyridine], the figures for the IC50 in experiment [1], in experiment [2] and in experiment [3] were 3 to 50 µM, < 0.3 µM and 3 to 50 µM, respectively.

For the molecule `COc1ccc(O)cc1-c1ccnc2cc(-c3cc(OC)c(OC)c(OC)c3)oc12` [Compound C136], the IC50 was 0.3 to 3 µM in experiment [1], < 0.3 µM in experiment [2] and 0.3 to 3 µM in experiment [3].

As to `COc1ccc(-c2cc3nccc(Nc4ccc5[nH]ccc5c4C)c3o2)cc1OC` [Compound B53, [2-(3,4-Dimethoxy-phenyl)-furo[3,2-b]pyridin-7-yl]-(4-methyl-1H-indol-5-yl)-amine], the IC50 in experiment [1], in experiment [2] and in experiment [3] was < 0.3 µM throughout.

In the case of `COc1cccc(-c2cc3nccc(Nc4ccc5[nH]ccc5c4C)c3o2)c1` [Compound B57, [2-(3-Methoxy-phenyl)-furo[3,2-b]pyridin-7-yl]-(4-methyl-1H-indol-5-yl)-amine], the IC50 was < 0.3 µM in experiment [1], 0.3 to 3 µM in experiment [2] and < 0.3 µM in experiment [3].

With `COc1cc(-c2cc3nccc(-c4cccc5[nH]ccc45)c3o2)cc(OC)c1OC` [Compound A20, 7-(1H-Indol-4-yl)-2-(3,4,5-trimethoxy-phenyl)-furo[3,2-b]pyridine], the IC50 was 0.3 to 3 µM in experiment [1], < 0.3 µM in experiment [2] and 3 to 50 µM in experiment [3].

For the molecule `Cc1c(Nc2ccnc3cc(-c4ccccc4)oc23)ccc2[nH]ccc12` [Compound B21, (4-Methyl-1H-indol-5-yl)-(2-phenyl-furo[3,2-b]pyridin-7-yl)-amine], the results for the half-inhibitory concentration (IC50) in experiment [1], in experiment [2] and in experiment [3] were < 0.3 µM, 0.3 to 3 µM and 0.3 to 3 µM, respectively.

With `Cc1cc(C)cc(-c2cc3nccc(Nc4ccc5[nH]ccc5c4C)c3o2)c1` [Compound B52, [2-(3,5-Dimethyl-phenyl)-furo[3,2-b]pyridin-7-yl]-(4-methyl-1H-indol-5-yl)-amine], the IC50 in experiment [1], in experiment [2] and in experiment [3] was 0.3 to 3 µM in each case.

For `Cc1cccc(-c2cc3nccc(Nc4ccc5[nH]ccc5c4C)c3o2)c1` [Compound B51, (4-Methyl-1H-indol-5-yl)-(2-m-tolyl-furo[3,2-b]pyridin-7-yl)-amine], the half-inhibitory concentration (IC50) in experiment [1] is 0.3 to 3 µM; in experiment [2] it was 3 to 50 µM; in experiment [3], 0.3 to 3 µM.

Turning to `COc1cc(-c2cc3nccc(-c4cc(OC(F)(F)F)cc(C(=O)O)c4)c3o2)cc(OC)c1OC` [Compound C163], the 50% inhibitory concentration (IC50) is 0.3 to 3 µM in experiment [1], < 0.3 µM in experiment [2] and 0.3 to 3 µM in experiment [3].

In the case of `Cc1c(Nc2ccnc3cc(-c4ccc(N5CCOCC5)cc4)oc23)ccc2[nH]ccc12` [Compound B54], the 50% inhibitory concentration (IC50) in experiment [1] is < 0.3 µM; in experiment [2], 0.3 to 3 µM; in experiment [3] it was 0.3 to 3 µM.

Consider `COc1c(C)cc(-c2cc3nccc(Nc4ccc5[nH]ccc5c4C)c3o2)cc1C` [Compound B49, [2-(4-Methoxy-3,5-dimethyl-phenyl)-furo[3,2-b]pyridin-7-yl]-(4-methyl-1H-indol-5-yl)-amine], for which the IC50 was < 0.3 µM in experiment [1], 0.3 to 3 µM in experiment [2] and 0.3 to 3 µM in experiment [3].

As for `COc1ccc(-c2cc3nccc(Nc4ccc5[nH]ccc5c4C)c3o2)cc1` [Compound B47, [2-(4-Methoxy-phenyl)-furo[3,2-b]pyridin-7-yl]-(4-methyl-1H-indol-5-yl)-amine], the IC50 lay in the range of 0.3 to 3 µM in experiment [1], 3 to 50 µM in experiment [2] and 0.3 to 3 µM in experiment [3].

As to `COc1ccc(OC)c(-c2cc3nccc(-c4cccc(C(=O)N[C@@H]5CCCC[C@@H]5N)c4)c3o2)c1` [Compound C178], the results for the IC50 in experiment [1], in experiment [2] and in experiment [3] were < 0.3 µM, < 0.3 µM and 0.3 to 3 µM, respectively.

As to `Cc1noc(C)c1-c1cc2nccc(Nc3ccc4[nH]ccc4c3C)c2o1` [Compound B63, [2-(3,5-Dimethyl-isoxazol-4-yl)-furo[3,2-b]pyridin-7-yl]-(4-methyl-1H-indol-5-yl)-amine], the IC50 was < 0.3 µM in experiment [1], 0.3 to 3 µM in experiment [2] and < 0.3 µM in experiment [3].

Regarding `COc1cc(-c2cc3nccc(-c4cccc(OCCN)c4)c3o2)cc(OC)c1OC` [Compound A38, 2-{3-[2-(3,4,5-Trimethoxy-phenyl)-furo[3,2-b]pyridin-7-yl]-phenoxy}-ethylamine], the results for the IC50 in experiment [1], in experiment [2] and in experiment [3] were 3 to 50 µM, < 0.3 µM and 0.3 to 3 µM, respectively.

On to `Cc1c(Nc2ccnc3cc(-c4ccc5c(c4)OCO5)oc23)ccc2[nH]ccc12` [Compound B48], for which the IC50 in experiment [1] is < 0.3 µM; in experiment [2], 0.3 to 3 µM; in experiment [3], 0.3 to 3 µM.

The values are drawn from patent publication US9006440B2, “Furopyridine derivatives” (Merck Patent GmbH, priority 2010, dated 2015).
